Experimental data taken from patent US20240308878A1, “WATER TREATMENT SYSTEM, WATER TREATMENT METHOD, AND AMINE SOLUTION” (KABUSHIKI KAISHA TOSHIBA, priority 2023, published 2024).

Test: Heating of the separated supernatant in a thermostatic bath: separation into amine phase and aqueous phase
Format: physicochemical
From the text: The element 15 that separates the supernatant phase F into the aqueous phase H and the organic phase J and recovers the tertiary amine recovers the tertiary amine included in the supernatant phase F. As the element 15 that separates the supernatant phase F into the aqueous phase H and the organic phase J and recovers the tertiary amine, the mechanism of heating the supernatant phase F is preferable. For example, the supernatant phase F is stored in a second container, not shown, and the supernatant phase F is heated in the second container. As the temperature of the supernatant phase F is increased, the compatibility of the tertiary amine compounds of the embodiment with water changes, and supernatant phase F separates into the organic phase and the aqueous phase. The supernatant phase F separates into the aqueous phase H and the organic phase J at a higher temperature than the first mixture D which separates into the phases. It is preferable that the supernatant phase F is heated to a temperature higher than the temperature of the first mixture (the temperature at which the first mixture D is phase-separated (the temperature at which the supernatant phase F and the concentrated phase G are separated separately)). It is preferable that the supernatant phase F is heated to a temperature 5[° C.] or higher than the temperature of the first mixture D (the temperature at which the first mixture D is phase-separated (the temperature at which the supernatant phase F and the concentrated phase G are separated separately)). It is preferable that the supernatant phase F is heated to a temperature 10[° C.] or higher than the temperature of the first mixture D (the temperature at which the first mixture D is phase-separated (the temperature at which the supernatant phase F and the concentrated phase G are separated separately)). It is preferable that the supernatant phase F is heated to a temperature 20[° C.] or higher than the temperature of the first mixture D (the temperature at which the first mixture D is phase-separated (the temperature at which the supernatant phase F and the concentrated phase G are separated separately)). It is preferable that the supernatant phase F is heated to a temperature 20 [° C.] or higher than the temperature of the first mixture D. It is preferable that the supernatant phase F is heated to a temperature 30 [° C.] or higher than the temperature of the first mixture D (the temperature at which the first mixture D is phase-separated (the temperature at which the supernatant phase F and the concentrated phase G are separated separately)). The supernatant phase F is preferably heated to 35[° C.] or more and less than 90[° C.]. From the viewpoint of reducing energy consumption, it is more preferably that the supernatant phase F is heated to 35[° C.] or more and 75[° C.] or less. The supernatant phase F is preferably phase-separated at 35 [° C.] or more and less than 90[° C.]. From the viewpoint of reducing energy consumption, the supernatant phase F is more preferably phase-separated at 35[° C.] or more and less than 90[° C.]. It is preferable to use waste heat generated at a plant or the like to heat the supernatant phase F.
When the separated supernatant solution is heated in a thermostatic bath at 70[° C.], it is separated into an amine phase and an aqueous phase. When the amine phase is separated and used for the same test, the salt removal rate of 97.5 [%] is obtained, and the concentration of the lower phase being separated of 21.2 [wt %] is obtained, which is the similar results as in the first test.

[1] = supernatant of the S/F 4.0 test
[2] = supernatant of the S/F 6.0 test
[3] = supernatant of the S/F 7.0 test
[4] = supernatant of the S/F 10.0 test

Separating Temperature Water/Amine [1] [°C] | Separating Temperature Water/Amine [2] [°C] | Separating Temperature Water/Amine [3] [°C] | Separating Temperature Water/Amine [4] [°C] | SMILES
70 | 70 | 60 | 70 | C1CCN(CCCN2CCCC2)C1 [chemical formula (1-2)]
70 | 70 | 50 | 70 | CCOC(=O)N1CCN(CCCN2CCN(C(=O)OCC)CC2)CC1 [chemical formula (2-1)]
